Data: patent US20250332162A1 (priority 2022, published 2025)
Like-named read-outs stand apart in the source and are kept apart here.

What was measured:
[1] = system: Flu virus strain A/Puerto Rico/8/1934 (PR8); test: microbe, parasite or virus in culture; type: cell-based; conditions: unidentified influenza virus, PR8, MDCK, MDCK cells
[2] = Solubility on dilution of 10 mM DMSO stocks; type: physicochemical; conditions: 10 mM stocks in DMSO
Method: Antiviral compounds: Favipiravir, Mycophenolate, and Viramidine were prepared as 10 mM stocks in dimethyl sulfoxide (DMSO) and were soluble when diluted in various reaction mixtures and cell culture media. […] Also, combination of Favipiravir with each of the other drugs were tested.

[3] = 48 h, read-out: estimated IC50 when used alone, Example A, PR8 Flu virus 0.01 MOI, 48 hours
[4] = read-out: IC50, inhibition of influenza virus cytopathic activity, drug alone, FIG. 7 experiment, influenza m.o.i. 0.01, pre-treated 1 h, two days
[5] = read-out: IC50, inhibition of influenza virus cytopathic activity, drug alone, FIG. 1 experiment, influenza A/PR8 m.o.i. 0.01, pre-treated 1 h, two days

Structure (SMILES) | IC50 [1, 3] | IC50 [1, 4] | solubility when diluted in reaction mixtures and cell culture media [2] | IC50 [1, 5]
N=C(N)c1ncn([C@@H]2O[C@H](CO)[C@@H](O)[C@H]2O)n1 [Viramidine, viramidine] | 94.7 µM | 94.7 µM | soluble | 
COc1c(C)c2c(c(O)c1C/C=C(\C)CCC(=O)O)C(=O)OC2 [Mycophenolate] | 1.42 µM |  | soluble | 1.4 µM
NC(=O)c1nc(F)c[nH]c1=O [Favipiravir, favipiravir] | 25 µM | 25.1 µM | soluble | 26.5 µM
